In article PMC11249646, “Small-Molecule Disruptors of the Interaction between Calcium- and Integrin-Binding Protein 1 and Integrin αIIbβ3 as Novel Antiplatelet Agents” (ACS Pharmacology & Translational Science, 2024):
Like-named read-outs stand apart in the source and are kept apart here.

How the values were obtained:
Assay type in all cases: binding
[1] = biological target: T1, GST-CIB1 : F-scrambled peptide (Homo sapiens, UniProt Q99828); test: FP scrambled-peptide counter screen, 1536-well format; details: scrambled-peptide counterscreen; for COUNTERSCREEN Confirm?: YES/NO call; for COUNTERSCREEN Curve Class: qHTS curve class; for IC50: read-out: COUNTERSCREEN IC50
T1 construct: made in house; host or cells: BL-21 plus RIL cells (E. coli)
T1 sequence (Q99828 1-191): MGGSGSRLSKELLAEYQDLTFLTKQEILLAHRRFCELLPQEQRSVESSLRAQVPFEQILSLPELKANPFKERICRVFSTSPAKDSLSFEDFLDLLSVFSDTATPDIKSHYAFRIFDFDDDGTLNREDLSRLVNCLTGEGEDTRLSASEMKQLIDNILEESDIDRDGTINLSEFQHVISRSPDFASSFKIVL

[2] = biological target: T2, CIB1 and αIIb interaction (GST-CIB1 : F-αIIb peptide) (Homo sapiens, UniProt Q99828); test: FP assay, 384-well format (screen); parameters: 384-well SCREEN Efficacy (%): concentration or dose not given beside the values; details: F-αIIb peptide; for 384-well SCREEN Confirm?: YES/NO; for IC50: read-out: 384-well SCREEN IC50
T2 construct: made in house; host or cells: BL-21 plus RIL cells (E. coli)
T2 sequence (Q99828 1-191): T1 sequence (Q99828 1-191)

[3] = biological target: T3, CIB1 and αIIb interaction (CIB1-GST : F-αIIb peptide) (Homo sapiens, UniProt Q99828); test: FP assay, 1536-well qHTS format (primary and confirmatory screen); details: for CONFIRMATORY SCREEN Confirm?: YES/NO call; for CONFIRMATORY SCREEN Curve Class: qHTS curve class; for CONFIRMATORY SCREEN Curve Class / Curve Class: negative sign = inhibitory curve; for CONFIRMATORY SCREEN Efficacy (%) / Efficacy (%): negative = inhibition
T3 construct: made in house; host or cells: BL-21 plus RIL cells (E. coli)
T3 sequence (Q99828 1-191): T1 sequence (Q99828 1-191)

[4] = biological target: T1, GST-CIB1 : F-scrambled peptide; test: FP scrambled-peptide counter screen, 384-well format; details: F-scrambled peptide; for 384-well COUNTERSCREEN Confirm?: *: Curve in opposite direction; for IC50: read-out: 384-well COUNTERSCREEN IC50
[5] = confirmatory screen, read-out: CONFIRMATORY SCREEN IC50
[6] = qHTS FP screen hits, Table S2, read-out: IC50
[7] = qHTS primary screen hits, Table S2
[8] = qHTS primary screen hits, Table S2, several classes where COUNT > 1
[9] = qHTS primary screen hits, Table S2, read-out: IC50
[10] = qHTS FP screen hits, Table S2, one class per curve where COUNT > 1

Structure (SMILES) | COUNTERSCREEN Efficacy (%) [1] | COUNTERSCREEN Confirm? [1] | COUNTERSCREEN Curve Class [1] | 384-well SCREEN Efficacy (%) [2] | 384-well SCREEN Confirm? [2] | IC50 [2] | CONFIRMATORY SCREEN Confirm? ([3]; confirmatory screen) | CONFIRMATORY SCREEN Curve Class ([3]; confirmatory screen) | CONFIRMATORY SCREEN Efficacy (%) ([3]; confirmatory screen) | IC50 [3, 5] | Efficacy (%) ([3]; qHTS FP screen hits, Table S2) | IC50 [3, 6] | 384-well COUNTERSCREEN Efficacy (%) [4] | 384-well COUNTERSCREEN Confirm? [4] | IC50 [4] | Efficacy (%) [3, 7] | IC50 [3, 9] | further results
COC(=O)[C@]12CCC(C)(C)C[C@H]1[C@H]1C(=O)C=C3[C@@]4(C)C=C(C#N)C(=O)C(C)(C)[C@@H]4CC[C@@]3(C)[C@]1(C)CC2 [NCGC00186460-01] | -36% | YES | -1.2 | 77% | YES | 3.5 µM | YES | -1.2 | -71% | 7.1 µM | -24% | 10.8 µM | 29% | YES | > 120 µM |  |  | IC50 [1]: 14.1 µM
Cc1ccc(S(=O)(=O)Nc2nn3c(=O)c4ccccc4nc3s2)cc1C.O=C(O)C(F)(F)F [NCGC00187578-01] | 39% | YES | 4 | 27% |  | > 120 µM | YES | -2.2 | -46% | 11.2 µM |  |  | 12% |  | > 120 µM | -22% | 14.1 µM | Curve Class [3, 8]: -1.4
O=C(O)C(F)(F)F.O=c1c2ccccc2nc2sc(NS(=O)(=O)c3ccc4c(c3)CCC4)nn12 [NCGC00187579-01] | 62% | YES |  | 43% | YES | 44.7 µM | YES | -1.2 | -35% | 6.3 µM |  |  | 28% | YES | > 120 µM | -32% | 2.8 µM | IC50 [1]: 35.5 µM; Curve Class [3, 7]: -1.4
O=C(O)C(F)(F)F.O=c1c2ccccc2nc2sc(Nc3cccc(N4CCN5CCCCC5C4)c3)nn12 (centres unmarked) [NCGC00189229-01] | -28% | YES | -2.4 | 42% | YES | 120 µM | YES | -1.2 | -50% | 7.9 µM | -20% | 2.5 µM | 42% |  | 17.8 µM |  |  | IC50 [1]: 56.2 µM
CSC(Cc1ccc(Cl)cc1)C(=O)Nc1ccc(Cl)cc1C(=O)O.O=C(O)C(F)(F)F (centres unmarked) [NCGC00189231-01] | 0% | YES | 4 | 31% | YES | 120 µM | YES | -2.4 | -50% | 44.7 µM |  |  | 29% | YES | > 120 µM | -23% | 22.4 µM | Curve Class [3, 8]: -2.4
O=C(O)C(F)(F)F.OCc1ccc(-c2ccc3ncnc(NCc4cccs4)c3c2)o1 [NCGC00189276-01] | 0% | YES | 4 | 72% | YES | 12.6 µM | YES | -1.2 | -62% |  |  |  | 34% | YES | > 120 µM | -57% | 25.1 µM | Curve Class [3, 8]: -1.2
Cc1cc(=O)oc2cc(SC3=NS(=O)(=O)c4ccccc43)ccc12 [NCGC00189497-01] | 115% | YES | 3 | 52% | YES | 44.7 µM | YES | -1.4 | -39% | 20 µM | -45% | 39.8 µM | 34% |  | 10 µM |  |  | IC50 [1]: 39.8 µM; Curve Class [3, 10]: -2.2
O=C(O)C(F)(F)F.O=C(O)c1ccc(-c2ccc3ncnc(NCc4nccs4)c3c2)o1 [NCGC00229620-01] | -21% | YES | 4 | 40% | YES | 17.8 µM | YES | -2.4 | -55% | 44.7 µM | -25% | 10 µM | 48% |  | 31.6 µM |  |  | 
Cc1csc(CNc2ncnc3ccc(-c4ccc(CO)o4)cc23)n1.O=C(O)C(F)(F)F [NCGC00229623-01] | -25% | YES | 4 | 70% | YES | 35.5 µM | YES | -3 | -83% |  |  |  | 39% |  | 25.1 µM | -60% |  | Curve Class [3, 7]: -2.2
CC(O)c1ccc(-c2ccc3ncnc(NCc4nccs4)c3c2)o1.O=C(O)C(F)(F)F (centres unmarked) [NCGC00238382-01] | 0% | YES | 4 | 61% | YES | 14.1 µM | YES | -3 | -53% |  | -63% | 39.8 µM | 36% | YES | 17.7 µM |  |  | Curve Class [3, 10]: -2.2
O=C(O)C(F)(F)F.OCc1ccc(-c2ccc3ncnc(NCc4nccs4)c3c2)o1 [NCGC00238383-01] | -16% | YES | 4 | 69% | YES | 25.1 µM | YES | -3 | -52% | 70.8 µM |  |  | 47% |  | 39.8 µM | -70% | 39.8 µM | Curve Class [3, 7]: -2.2
CCOC(=O)c1c(NC(=O)C2CC(Cl)=CCC2C(=O)O)sc2c1CCCCC2.O=C(O)C(F)(F)F (centres unmarked) [NCGC00238648-01] | 16% | YES | 4 | 15% |  | > 120 µM | YES | -2.2 | -59% |  | -22% | 35.5 µM | 12% |  | > 120 µM |  |  | 
COC(=O)c1ccc2c(c1)S(=O)(=O)N=C2Sc1cc(C)ccc1C [NCGC00238687-01] | -10% | YES | 4 | 65% | YES | 11.2 µM | YES | -1.2 | -59% | 28.2 µM |  |  | 45% | YES | > 120 µM | -49% | 39.8 µM | Curve Class [3, 8]: -2.2
CCOC(=O)c1ccc(O)c2ncc(-c3ccc(C(=N)N)cc3)cc12.O=C(O)C(F)(F)F [NCGC00241050-01] | -18% | YES | 4 | 87% | YES | 20 µM | YES | -2.2 | -52% |  | -77% | 44.7 µM | 77% | Inconclusive |  |  |  | 
